Here are results for 1 compound from patent US6607890B1, “Mismatch-recognizing molecules” (Japan Science and Technology Corporation, priority 1999, dated 2003).

What all share (type): binding
Test [1] relates to normal G-C base pair. As to the kind of experiment: DNase I footprinting titration on 5′-32P labeled 52-mer double-stranded DNA, normal G-C site. The following applies: concentration increased from 0 up to 500 μM, FIG. 1. As for the experimental part:
(§1) Accordingly, it was examined whether such a compound having two 1,8-naphthylidien moieties can be incorporated into chains of a nucleic acid by constructing a paring with each mismatched guanine in a case when mismatched base pairing of guanine—guanine exists in a double-stranded nucleic acid. 52-mer double-stranded DNA labeled with 5′-^32P having a GC base pair, a GA mismatched base pair and a GG mismatched base pair in the double-stranded DNA was prepared. The partial sequences of the corresponding parts are illustrated as follows.
(§2) Using this double-stranded DNA, an inhibited position of DNA cleavage by DNase I was analyzed by means of DNase I (DNA hydrolase) footprinting titration in the presence of the compound of the formula (III) at various concentrations.
Cleavage by DNase I (DNA hydrolase) is shown in black and inhibition in a position of the cleavage by DNase is shown in white.
(§3) A double-stranded DNA was prepared by hybridizing 5′-end ^32P labeled 52-mer DNA to form mismatched base pairs with G-G and G-A (refer to the right figures in FIG. 1).
Various concentrations of the compound obtained in example 1 were added to the double-stranded DNA, and analyzed by DNA footprinting using DNase I. […]

Test [2] has as its system G-G mismatched base pair. The test is described as follows: DNase I footprinting titration on 5′-32P labeled 52-mer double-stranded DNA, G-G mismatched site. As for the experimental part:
as §1, §2
(§4) FIG. 2 is a graph showing a relationship between an intensity of cleaved band and a concentration of added naphthyriidine in FIG. 1. […] In FIG. 2, the abscissa indicates concentration (M) of the compound of the formula (III) added. In FIG. 2, black circle (●) in the graph indicates mismatched site of G-G, and black triangle (▴) indicates mismatched site of G-A.
as §3
(§5) Various concentrations of the compound obtained in example 1 were added to the double-stranded DNA, and analyzed by DNA footprinting using DNase I.
(§6) The double-stranded DNA (<4 nM strand concentration) was incubated with the compound obtained in example 1, which was adjusted to various concentrations with tris-HCl buffer (10 mM, pH 7.6) containing NaCl (100 mM) and MgCl2 (5 mM), at 4° C. for 12 hours. 0.2 U DNase I (DNA hydrolase) was added thereto and incubated at 25° C. for […]. DNA was recovered by mans of ethanol precipitation and electrophoresed using a gel containing 12% polyacrylamide and 7M urea.

Test [3] relates to G-A mismatched base pair. As to the kind of experiment: DNase I footprinting titration on 5′-32P labeled 52-mer double-stranded DNA, G-A mismatched site. As for the experimental part:
as §1, §2, §4, §3, §5, §6

[4] abbreviates: calculated from DNase I footprinting titration (FIG. 2).

In the case of `Cc1ccc2ccc(NC(=O)CCNCCC(=O)Nc3ccc4ccc(C)nc4n3)nc2n1` [formula (III), dinaphthylidinamide], the “effect on DNase I cleavage at the normal G-C base pairing” value in test [1] is listed as “cleavage by DNase I occurs”. Moreover, in test [2] (DNase I cleavage, FIG. 2), the “concentration at which the cleavage in the G-G mismatched site is inhibited almost completely” value is listed as ≥ 10^−5 M. Also, the “ratio of both binding constants [(Ka (GGmis))/(Ka (GAmis))]” value in test [2] (G-G versus G-A mismatch) is given as 696. For the same compound, in test [2] (setting [4]), the “binding constant to the mismatched base G-G [Ka (GGmis)]” value was 1.13e+07 M⁻¹. In test [3] (DNase I cleavage, FIG. 2), the “concentration from which the inhibitory action against cleavage initiates in the G-A mismatched site” value is “approximately 10^−6 M”. In addition, the “inhibition of the cleavage in the G-A mismatched site” value in test [3] (at around (500 μM) compound) was “about 90%”. In test [3] (setting [4]), the “binding constant to the mismatched base G-A [Ka (GAmis)]” value is 16300 M⁻¹.
